Results as given in patent US11724999B2, “Inhibitors of RAS-effector protein interactions” (Oxford University Innovation Limited, priority 2018, dated 2023).

Columns and labels:
[1] = test system: H358 cells (ATCC CRL-5807); assay: Cell viability assay (CellTiter-Glo), H358 cells; assay type: cell-based; settings: Homo sapiens, NCI-H358, 48 h incubation, first value of the cell, read-out: Cell Viability (μM) H358 (concentration that decreases cell viability by 50%)
Experimental: (§1) Cells (A549 ATCC CCL-185) are cultured in Dulbecco's Modified Eagle's Medium plus 10% foetal calf serum and 2 mM L-glutamine at 37° C., 5% CO2. Cells are plated onto white clear bottom 96-well plates (5000 cells/well in 200 μl media) and left to adhere overnight at 37° C., 5% CO2. Next day, test compound (1 μl at 200× concentration in 100% DMSO) is added to give final test compound concentration 1× in 0.5% DMSO. After 48 h of incubation at 37° C., 5% CO2, 20 μl CellTiter-Glo reagent (Promega G7572) is added into each well. Plates are incubated at room temperature with shaking for 30 min and then luminescence is read using a PheraStar plate reader. The concentration of compounds that decrease cell viability by 50% is calculated from dose response curves generated using Dotmatics data analysis software.
In the H358 cell assay, cells (ATCC CRL-5807) are cultured in RPM-1640 medium plus 10% foetal calf serum and 2 mM L-glutamine at 37° C., 5% CO2.

[2] = test system: DLD1 cells (ATCC CCL-221); assay: Cell viability assay (CellTiter-Glo), DLD1 cells; assay type: cell-based; settings: Homo sapiens, DLD-1 cells, 48 h incubation, second value of the cell, read-out: Cell Viability (μM) DLD-1 (concentration that decreases cell viability by 50%)
Experimental: as §1
In the DLD1 cell assay, cells (ATCC CCL-221) are cultured in RPMI-1640 medium plus 10% foetal calf serum and 2 mM L-glutamine at 37° C., 5% CO2.

[3] = target: T1, GST-human KRas166 (G12V) GPPNHP (Homo sapiens, UniProt P01116, G12V); assay: KRas small-molecule screening by SPR (BIACORE T200); assay type: binding; settings: compound at final concentration of 100 uM; immobilised GST-KRAS166 (G12V) GPPNHP, GST reference channel
T1 construct: made in house; host or cells: E. coli C41(DE3)
Experimental: For SPR assays pGEX-KRAS(G12V) plasmid was transformed into E. coli C41(DE3). Bacterial cells were cultured at 37° C. to an OD600 of 0.6 and induced with IPTG (final 0.1 mM) at 18° C. overnight. The GST fusion proteins were extracted from bacteria pellets after cell disruption in 140 mM NaCl, 2.7 mM KCl, […], 1.8 mM KH2PO4, 1 mM EDTA, 2 mM MgCl2 pH 7.4 and purified by glutathione-sepharose column chromatography (GE Healthcare), eluting with 50 mM Tris-HCl pH8.0, 10 mM reduced glutathione, 1 mM DTT, 2 mM MgC2. The eluted proteins were dialysed against 50 mM Tris-HCl pH8.0, 1 mM DTT, 2 mM MgCl2 and concentrated to 10 mg/ml using a Biomax-30 […]-15 centrifugal filter device (Millipore). Purified KRAS protein was loaded with GPPNHP as described elsewhere (Pacold et al., 2000). Loaded protein was then purified by gel filtration on a HiLoad Superdex-75 HR column (GE Healthcare) in 1×PBS pH7.4, 5 mM MgCl2 and concentrated for storage.
To a previously immobilized CM5 chip (GE Healthcare BR-1005-30) with anti GST antibody via amine coupling method, GST in channel 1 and GST-human KRas166 (G12V) GPPNHP in channel 2 were immobilised. GST was immobilised between 2,000 and 5,000 Response units. KRAS166 (G12V) was immobilized between 10,000 to 15,000 Response Units.
In a 96 well plate, compounds were diluted in […], 5 mM MgCl2 and 5% DMSO Buffer to a final concentration of 100 uM. DCAI was used as positive control. Experiment also included a solvent correction curve for 5% DMSO. Screening and evaluation of the protein immobilization and the compounds screening was done accordingly to the BIACORE T200 control and evaluation software.
Protein immobilisation: 10,000 RU; average fragment 300 Da in size. Rmax=(MWA/MWL)×RL×SM MWA is the molecular weight of the analyte in Da MWL is the molecular weight of the ligand in Da RL is the immobilization level in RU SM is the molar stoichiometry (assume 1:1) Rmax=300/47,500×10,000×1 Rmax=63 RU. Cell Viability Assay protocols

IC50 [1] [µM] | IC50 [2] [µM] | SPR Response Units [3] [Response Units] | SMILES
18.2 | 9.6 | 28 | CN1CCC(C(=O)NC[C@@H]2COc3ccc(OCc4ccc(F)cc4)cc3O2)CC1 [Example 31, 1-Methyl-piperidine-4-carboxylic acid [(R)-7-(4-fluoro-benzyloxy)-2,3-dihydro-benzo[1,4]dioxin-2-ylmethyl]-amide]
26.2 | 15.9 | 37 | Cc1ccccc1COc1ccc2c(c1)O[C@H](CNC(=O)C1CCN(C)CC1)CO2 [Example 32, 1-Methyl-piperidine-4-carboxylic acid [(R)-7-(2-methyl-benzyloxy)-2,3-dihydro-benzo[1,4]dioxin-2-ylmethyl]-amide]
14 | 2 | 173 | CN(C)CCCOc1ccc(CN(C[C@@H]2COc3ccc(OCc4ccccc4)cc3O2)C(=O)c2ncco2)cc1 [Example 40, Oxazole-2-carboxylic acid ((R)-7-benzyloxy-2,3-dihydro-benzo[1,4]dioxin-2-ylmethyl)-[4-(3-dimethylamino-propoxy)-benzyl]-amide]
74 | 16 | 7 | CC(C)(C)OC(=O)NCc1ccc(CN(C[C@@H]2COc3ccc(OCc4ccccc4)cc3O2)C(=O)c2ncco2)cc1 [Example 41, (4-{[((R)-7-Benzyloxy-2,3-dihydro-benzo[1,4]dioxin-2-ylmethyl)-(oxazole-2-carbonyl)-amino]-methyl}-benzyl)-carbamic acid tert-butyl ester]
29 | 3 | 93 | O=C(c1ncco1)N(CC1CCN(Cc2ccccc2)CC1)C[C@@H]1COc2ccc(OCc3ccccc3)cc2O1 [Example 42, Oxazole-2-carboxylic acid ((R)-7-benzyloxy-2,3-dihydro-benzo[1,4]dioxin-2-ylmethyl)-(1-benzyl-piperidin-4-ylmethyl)-amide]
> 100 | 9 | 221 | NCc1ccc(CN(C[C@@H]2COc3ccc(OCc4ccccc4)cc3O2)C(=O)c2ncco2)cc1 [Example 44, Oxazole-2-carboxylic acid (4-aminomethyl-benzyl)-((R)-7-benzyloxy-2,3-dihydro-benzo[1,4]dioxin-2-ylmethyl)-amide]
26.3 | 9.6 | 22 | c1ccc(COc2ccc3c(c2)O[C@H](CNC2CCNCC2)CO3)cc1 [Example 45, ((R)-7-Benzyloxy-2,3-dihydro-benzo[1,4]dioxin-2-ylmethyl)-piperidin-4-yl-amine]
16 | 2 | 75 | CN1CCC(CNC[C@@H]2COc3ccc(OCc4ccccc4)cc3O2)CC1 [Example 46, ((R)-7-Benzyloxy-2,3-dihydro-benzo[1,4]dioxin-2-ylmethyl)-(1-methyl-piperidin-4-ylmethyl)-amine]
35 | 15.7 | 48 | O=C1CCCN1CC(NC[C@@H]1COc2ccc(OCc3ccccc3)cc2O1)c1ccccc1 (stereo partly drawn) [Example 47, 1-{2-[((R)-7-Benzyloxy-2,3-dihydro-benzo[1,4]dioxin-2-ylmethyl)-amino]-2-phenyl-ethyl}-pyrrolidin-2-one]
28 | 5 | 70 | CN(C)CC(=O)N[C@H]1CC[C@@H](NC[C@@H]2COc3ccc(OCc4ccccc4)cc3O2)CC1 [Example 50, N-{4-[((R)-7-Benzyloxy-2,3-dihydro-benzo[1,4]dioxin-2-ylmethyl)-amino]-cyclohexyl}-2-dimethylamino-acetamide]
14 | 7.3 | 166 | CN(C)CC(=O)N[C@H]1CC[C@@H](N(Cc2ccn[nH]2)C[C@@H]2COc3ccc(OCc4ccccc4)cc3O2)CC1 [Example 51, N-{4-[((R)-7-Benzyloxy-2,3-dihydro-benzo[1,4]dioxin-2-ylmethyl)-(2H-pyrazol-3-ylmethyl)-amino]-cyclohexyl}-2-dimethylamino-acetamide]
> 100 | 15 | 70 | O=c1ccccn1CCN1CCN(C[C@@H]2COc3ccc(OCc4ccccc4)cc3O2)CC1 [Example 52, 1-{2-[4-((R)-7-Benzyloxy-2,3-dihydro-benzo[1,4]dioxin-2-ylmethyl)-piperazin-1-yl]-ethyl}-1H-pyridin-2-one]
42 | 7 | 93 | CN1CCN(Cc2cccc(CNC(=O)C3COc4ccc(OCc5ccccc5)cc4O3)c2)CC1 (stereo not drawn) [Example 62, 7-Benzyloxy-2,3-dihydro-benzo[1,4]dioxine-2-carboxylic acid 3-(4-methyl-piperazin-1-ylmethyl)-benzylamide]
21.3 | 16.7 | 115 | O=C(NCc1ccc(CN2CCNCC2)cc1)C1COc2ccc(OCc3ccccc3)cc2O1 (stereo not drawn) [Example 74, 7-Benzyloxy-2,3-dihydro-benzo[1,4]dioxine-2-carboxylic acid 4-piperazin-1-ylmethyl-benzylamide]
59 | 4 | 49 | CN1CCC2(CC1)NC(=O)N(C[C@@H]1COc3ccc(OCc4ccccc4)cc3O1)C2=O [Example 77, 3-((R)-7-Benzyloxy-2,3-dihydro-benzo[1,4]dioxin-2-ylmethyl)-8-methyl-1,3,8-triaza-spiro[4.5]decane-2,4-dione]
50 | 9 | 72 | O=C1CN(C2CCNCC2)C(=O)N1C[C@@H]1COc2ccc(OCc3ccccc3)cc2O1 [Example 79, 3-((R)-7-Benzyloxy-2,3-dihydro-benzo[1,4]dioxin-2-ylmethyl)-1-piperidin-4-yl-imidazolidine-2,4-dione]
> 100 | 10 | 64 | NCC(=O)N[C@H]1CC[C@@H](NC(=O)C2COc3ccc(OCc4ccccc4)cc3O2)CC1 (stereo partly drawn) [Example 85, 7-Benzyloxy-2,3-dihydro-benzo[1,4]dioxine-2-carboxylic acid [4-(2-amino-acetylamino)-cyclohexyl]-amide]

SMILES | IC50 [1] [µM] | IC50 [2] [µM] | SPR Response Units [3] [Response Units]
O=C(c1ncco1)N(C[C@@H]1COc2ccc(OCc3ccccc3)cc2O1)C1CCN(Cc2ccccc2)CC1 [Example 43, Oxazole-2-carboxylic acid ((R)-7-benzyloxy-2,3-dihydro-benzo[1,4]dioxin-2-ylmethyl)-(1-benzyl-piperidin-4-yl)-amide] | 20.8 | 18.5 | 35
O=C(Nc1ncc[nH]1)C1COc2ccc(OCc3ccccc3)cc2O1.O=CO (stereo not drawn) [Example 61, 7-Benzyloxy-2,3-dihydro-benzo[1,4]dioxine-2-carboxylic acid (1H-imidazol-2-yl)-amide; formic acid salt] | > 100 | 13 | 25
